# pIC50: −log10 of the molar value.
# Target: T1, recombinant full-length human prolyl endopeptidase (PREP) (Homo sapiens, UniProt P48147)
# T1 construct: To recombinant full-length human prolyl endopeptidase (PREP, R&D-Systems, 4308-SE); purchased R&D-Systems 4308-SE
# T1 sequence (P48147 1-710): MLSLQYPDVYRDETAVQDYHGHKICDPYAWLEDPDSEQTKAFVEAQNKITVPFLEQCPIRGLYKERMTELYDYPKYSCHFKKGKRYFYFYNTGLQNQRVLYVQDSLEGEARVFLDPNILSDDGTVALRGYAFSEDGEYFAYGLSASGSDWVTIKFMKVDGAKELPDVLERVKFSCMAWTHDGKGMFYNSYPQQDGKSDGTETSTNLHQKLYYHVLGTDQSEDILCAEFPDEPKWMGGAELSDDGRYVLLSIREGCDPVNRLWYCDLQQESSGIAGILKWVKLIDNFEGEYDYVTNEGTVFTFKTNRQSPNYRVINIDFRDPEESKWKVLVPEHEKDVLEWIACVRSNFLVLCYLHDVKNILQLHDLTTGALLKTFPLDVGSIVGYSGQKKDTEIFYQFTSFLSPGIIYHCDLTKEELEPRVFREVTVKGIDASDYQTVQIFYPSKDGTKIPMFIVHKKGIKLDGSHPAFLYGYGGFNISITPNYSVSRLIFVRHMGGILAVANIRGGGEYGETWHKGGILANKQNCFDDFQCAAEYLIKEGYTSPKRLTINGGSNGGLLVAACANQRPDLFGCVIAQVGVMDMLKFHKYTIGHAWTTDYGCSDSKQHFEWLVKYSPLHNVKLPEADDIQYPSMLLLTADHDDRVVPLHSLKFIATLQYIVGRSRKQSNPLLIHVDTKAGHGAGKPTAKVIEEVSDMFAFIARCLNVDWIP
# Test: Biochemical human prolyl endopeptidase (PREP) assay with fluorescently labelled substrate
# Conditions: substrate Z-Gly-Pro-AMC 50 μM, 32° C., 60 min; some as mean values from multiple independent determinations
# Procedure, shortened: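 Initial rates of fluorescence increase from 50 μM Z-Gly-Pro-AMC cleavage (ex 360/em 465 nm, 60 min, 32° C) give percent PREP activity versus no-compound control, and IC50 is interpolated. Enzyme used at 0.4 nM (final, example) in Tris pH 7.5 with EDTA, GSH, BSA and Brij-35; compounds span 1 nM to 30 μM.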
row,pIC50,SMILES
1,8.51,"O=C(C1CC(C(F)(F)F)Cc2nn(Cc3ccnc(C(F)(F)F)c3F)c(=O)n21)N1CCC(F)(F)C1 (single isomer, unassigned) [Example 252, (5RS,7RS)-5-[(3,3-Difluoropyrrolidin-1-yl)carbonyl]-2-{[3-fluoro-2-(trifluoromethyl)pyridin-4-yl]methyl}-7-(trifluoromethyl)-5,6,7,8-tetrahydro[1,2,4]triazolo[4,3-a]pyridin-3(2H)-one]"
2,8.92,"O=C([C@@H]1CCCc2nn(Cc3cncc(Br)c3)c(=O)n21)N1C[C@@H](F)[C@@H](F)C1 [Example 506, (5S)-2-[(5-Bromopyridin-3-yl)methyl]-5-{[(3R,4S)-3,4-difluoropyrrolidin-1-yl]carbonyl}-5,6,7,8-tetrahydro[1,2,4]triazolo[4,3-a]pyridin-3(2H)-one]"
3,8.10,"O=C([C@@H]1CCCc2nn(CCc3ncc(C(F)(F)F)cc3Cl)c(=O)n21)N1CCC(F)(F)C1 [Example 343, (5S)-2-{2-[3-Chloro-5-(trifluoromethyl)pyridin-2-yl]ethyl}-5-[(3,3-difluoropyrrolidin-1-yl)carbonyl]-5,6,7,8-tetrahydro[1,2,4]triazolo[4,3-a]pyridin-3(2H)-one]"
4,7.01,"O=C(C1C(C(F)(F)F)CCc2nn(Cc3ncc(Cl)cc3Cl)c(=O)n21)N1CC(F)C1 (single isomer, unassigned) [Example 307, (5RS,6RS)-2-[(3,5-Dichloropyridin-2-yl)methyl]-5-[(3-fluoroazetidin-1-yl)carbonyl]-6-(trifluoromethyl)-5,6,7,8-tetrahydro[1,2,4]triazolo[4,3-a]pyridin-3(2H)-one]"
5,9.65,"O=C([C@@H]1CCCc2nn(Cc3ncc(C(F)(F)F)cc3Cl)c(=O)n21)N1CC[C@H](F)C1 [Example 405, (5S)-2-{[3-Chloro-5-(trifluoromethyl)pyridin-2-yl]methyl}-5-{[(3S)-3-fluoropyrrolidin-1-yl]carbonyl}-5,6,7,8-tetrahydro[1,2,4]triazolo[4,3-a]pyridin-3(2H)-one]"
6,8.38,"Cc1ccc(C(=O)Cn2nc3n(c2=O)[C@H](C(=O)N2CC[C@H](F)C2)CCC3)cc1 [Example 516, (5S)-5-{[(3S)-3-Fluoropyrrolidin-1-yl]carbonyl}-2-[2-(4-methylphenyl)-2-oxoethyl]-5,6,7,8-tetrahydro[1,2,4]triazolo[4,3-a]pyridin-3(2H)-one]"
7,7.92,"O=C([C@@H]1CCc2nn(Cc3ccc(C(F)(F)F)nc3)c(=O)n21)N1CCCC1 [Example 50, (5S)-5-(Pyrrolidin-1-ylcarbonyl)-2-{[6-(trifluoromethyl)pyridin-3-yl]methyl}-2,5,6,7-tetrahydro-3H-pyrrolo[2,1-c][1,2,4]triazol-3-one]"
8,6.67,"O=C(C1C(C(F)(F)F)CCc2nn(Cc3ncc(Cl)cc3Cl)c(=O)n21)N1CC(F)C1 (racemic) [Example 306, (5RS,6RS)-2-[(3,5-Dichloropyridin-2-yl)methyl]-5-[(3-fluoroazetidin-1-yl)carbonyl]-6-(trifluoromethyl)-5,6,7,8-tetrahydro[1,2,4]triazolo[4,3-a]pyridin-3(2H)-one]"
9,6.92,"O=C(C1CC(C(F)(F)F)Cc2nn(Cc3ccc(C(F)(F)F)nc3)c(=O)n21)N1CC(O)C1 (single isomer, unassigned) [Example 234, (5RS,7RS)-5-[(3-Hydroxyazetidin-1-yl)carbonyl]-7-(trifluoromethyl)-2-{[6-(trifluoromethyl)pyridin-3-yl]methyl}-5,6,7,8-tetrahydro[1,2,4]triazolo[4,3-a]pyridin-3(2H)-one]"
10,7.43,"Cc1ccc(Cn2nc3n(c2=O)C(C(=O)N2CCCCC2)CCC3)cc1 (racemic) [Example 161, (5RS)-2-(4-Methylbenzyl)-5-(piperidin-1-ylcarbonyl)-5,6,7,8-tetrahydro[1,2,4]triazolo[4,3-a]pyridin-3(2H)-one]"
11,7.72,"Cc1ccc(C2(Cn3nc4n(c3=O)[C@H](C(=O)N3CC(O)C3)CCC4)CC2)cc1 [Example 354, (5S)-5-[(3-Hydroxyazetidin-1-yl)carbonyl]-2-{[1-(4-methylphenyl)cyclopropyl]methyl}-5,6,7,8-tetrahydro[1,2,4]triazolo[4,3-a]pyridin-3(2H)-one]"
12,8.66,"O=C(C1C(C(F)(F)F)CCc2nn(Cc3ccnc(C(F)(F)F)c3F)c(=O)n21)N1CC[C@H](F)C1 (single isomer, unassigned) [Example 281]"
13,9.24,"O=C(C1CCCc2nn(Cc3cccc(C(F)(F)F)c3)c(=O)n21)N1CCCC1 (racemic) [Example 19, (5RS)-5-(Pyrrolidin-1-ylcarbonyl)-2-[3-(trifluoromethyl)benzyl]-5,6,7,8-tetrahydro[1,2,4]triazolo[4,3-a]pyridin-3(2H)-one]"
14,7.04,"O=C(C1CC(C(F)(F)F)Cc2nn(Cc3ccnc(C(F)(F)F)c3F)c(=O)n21)N1CC[C@H](F)C1 (single isomer, unassigned) [Example 258]"
15,8.84,"Cc1ccc(Cn2nc3n(c2=O)C(C(=O)N2CCC(F)(F)C2)CCC3)cc1 (racemic) [Example 42, (5RS)-5-[(3,3-Difluoropyrrolidin-1-yl)carbonyl]-2-(4-methylbenzyl)-5,6,7,8-tetrahydro[1,2,4]triazolo[4,3-a]pyridin-3(2H)-one]"
16,9.89,"Cc1ccc(Cn2nc3n(c2=O)[C@H](C(=O)N2CCC[C@H]2C(=O)CO)CCC3)cc1 [Example 190, (5S)-5-{[(2S)-2-Glycoloylpyrrolidin-1-yl]carbonyl}-2-(4-methylbenzyl)-5,6,7,8-tetrahydro[1,2,4]triazolo[4,3-a]pyridin-3(2H)-one]"
17,6.49,"O=C([C@@H]1CCCc2nn(/C=C/c3ccc(F)cc3)c(=O)n21)N1CCCC1 [Example 204, (5S)-2-[(E)-2-(4-Fluorophenyl)vinyl]-5-(pyrrolidin-1-ylcarbonyl)-5,6,7,8-tetrahydro[1,2,4]triazolo[4,3-a]pyridin-3(2H)-one]"
18,6.10,"O=C(O)c1ccc(Cn2nc3n(c2=O)C(C(=O)N2CCCC2)CCC3)cc1 (racemic) [Example 154, 4-{[(5RS)-3-Oxo-5-(pyrrolidin-1-ylcarbonyl)-5,6,7,8-tetrahydro[1,2,4]triazolo[4,3-a]pyridin-2(3H)-yl]methyl}benzoic acid]"
19,6.96,"Cc1ccc(Cn2nc3n(c2=O)[C@H](C(=O)N2C[C@@H](O)[C@H](F)C2)CCC3)cc1 [Example 183, (5S)-5-{[(3R,4R)-3-Fluoro-4-hydroxypyrrolidin-1-yl]carbonyl}-2-(4-methylbenzyl)-5,6,7,8-tetrahydro[1,2,4]triazolo[4,3-a]pyridin-3(2H)-one]"
20,8.52,"O=C(C1CCCc2nn(Cc3ccc(F)c(C(F)(F)F)c3)c(=O)n21)N1CC[C@H](O)C1 (mixture of isomers) [Example 101, (5RS)-2-[4-Fluoro-3-(trifluoromethyl)benzyl]-5-{[(3S)-3-hydroxypyrrolidin-1-yl]carbonyl}-5,6,7,8-tetrahydro[1,2,4]triazolo[4,3-a]pyridin-3(2H)-one]"
21,7.55,"COc1ccc(CCn2nc3n(c2=O)[C@H](C(=O)N2CC(F)(F)C2)CCC3)cc1 [Example 523, (5S)-5-[(3,3-Difluoroazetidin-1-yl)carbonyl]-2-[2-(4-methoxyphenyl)ethyl]-5,6,7,8-tetrahydro[1,2,4]triazolo[4,3-a]pyridin-3(2H)-one]"
22,9.10,"O=C([C@@H]1CCCc2nn(Cc3ccc(F)c(F)c3)c(=O)n21)N1CC(F)C1 [Example 469, (5S)-2-(3,4-Difluorobenzyl)-5-[(3-fluoroazetidin-1-yl)carbonyl]-5,6,7,8-tetrahydro[1,2,4]triazolo[4,3-a]pyridin-3(2H)-one]"
23,9.37,"COc1ccc(C2(Cn3nc4n(c3=O)[C@H](C(=O)N3CC(F)C3)CCC4)CC2)cc1 [Example 357, (5S)-5-[(3-Fluoroazetidin-1-yl)carbonyl]-2-{[1-(4-methoxyphenyl)cyclopropyl]methyl}-5,6,7,8-tetrahydro[1,2,4]triazolo[4,3-a]pyridin-3(2H)-one]"
24,6.29,"O=C(C1CC(C(F)(F)F)Cc2nn(Cc3cncc(Cl)c3)c(=O)n21)N1CC[C@H](F)C1 (single isomer, unassigned) [Example 318]"
25,9.38,"Cc1ccc(Cn2nc3n(c2=O)[C@H](C(=O)N2CC[S+]([O-])C2)CCC3)cc1 (single isomer, unassigned) [Example 193]"
26,9.00,"CC1Cc2nn(Cc3ccc(C(F)(F)F)nc3)c(=O)n2C(C(=O)N2CC[C@H](F)C2)C1 (single isomer, unassigned) [Example 138]"
27,8.68,"O=C(C1CCCc2nn(Cc3cc(C(F)(F)F)c(Cl)cn3)c(=O)n21)N1CCCC1 (single isomer, unassigned) [Example 107]"

# From patent US10722501B2 (BAYER AKTIENGESELLSCHAFT, priority 2016, dated 2020)
